We go through three substances from paper PMC4164784, “4E-BPs require non-canonical 4E-binding motifs and a lateral surface of eIF4E to repress translation” (Nature Communications, 2014).

No end group written: not given here.

Test [1] has as its system eIF4E II-AA mutant (full length). Description: GST/MBP pull-down of full-length eIF4E II-AA mutant, coexpressed in E. coli. Format: binding, Drosophila melanogaster. The note with it: recombinant CUP (311–440), Thor (full length), 4E-T (1–58) or eIF4G (578–650), WT or mutant, SDS–PAGE. The procedure:
(§1) For the pull-down assays shown in Fig. 3 and Supplementary Fig. 6a, the full-length His6- or SHN-tagged eIF4E (WT or II-AA mutant) was coexpressed with GST or MBP-tagged protein fragments, including CUP (residues 311–440), Thor (full length), 4E-T (residues 1–58) or eIF4G (residues 578–650) in E. coli BL21 (DE3) STAR cells in autoinducing medium[44] overnight at 20 °C. The cells were resuspended in lysis buffer (20 mM Tris–HCl (pH 7.5), 100 mM NaCl, 1 mM DTT) supplemented with EDTA-free protease inhibitor (Roche) and lysed by sonication. The cleared lysates were incubated for 1 h with 20 μl of Protino Glutathione Agarose 4B beads (Macherey-Nagel) or amylose resin (New England Biolabs). The beads were washed three times with lysis buffer, and the bound proteins were eluted with lysis buffer containing 25 mM L-glutathione or 25 mM maltose for 15 min. The proteins were analyzed by 10–15% SDS–PAGE followed by Coomassie blue staining.

The subject of the next test is eIF4E (full length, WT). Put plainly: GST/MBP pull-down of full-length WT eIF4E, coexpressed in E. coli. The class given is binding, Drosophila melanogaster. The note with it: recombinant CUP (311–440), Thor (full length), 4E-T (1–58) or eIF4G (578–650), WT or mutant, SDS–PAGE. The procedure: as §1
The next test relates to endogenous eIF4E. Description: Coimmunoprecipitation / m7GTP pull-down with endogenous eIF4E in S2 cell lysates. The note with it: western blot. Format: cell-based, Drosophila melanogaster. The gist of the method:
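S2 cell lysates expressing HA-tagged 4E-BPs (CUP, Thor, 4E-T), eIF4G or mutants, immunoprecipitated with anti-eIF4E or anti-HA antibodies, or pulled down with m7GTP beads for 1 h at 4 °C. Washes in NET buffer (50 mM Tris pH 7.4, 150 mM NaCl, 1 mM EDTA, 0.1% Triton X-100). Bound proteins detected by anti-HA/anti-eIF4E western blot; pre-immune serum and HA-MBP as negative controls.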
For orientation: In western blotting, separated proteins are transferred to a membrane and probed.

In test [2] the target is T1, eIF4E–eIF4G complex (eIF4E WT; eIF4G residues 578–650) (Drosophila melanogaster, UniProt P48598).
T1 construct: full-length eIF4E (WT or the II-AA mutant) containing an N-terminal SNH-tag was coexpressed; made in house; host or cells: E. coli BL21 Star (DE3), coexpression
T1 sequence (P48598 1-248 isoform P48598-2): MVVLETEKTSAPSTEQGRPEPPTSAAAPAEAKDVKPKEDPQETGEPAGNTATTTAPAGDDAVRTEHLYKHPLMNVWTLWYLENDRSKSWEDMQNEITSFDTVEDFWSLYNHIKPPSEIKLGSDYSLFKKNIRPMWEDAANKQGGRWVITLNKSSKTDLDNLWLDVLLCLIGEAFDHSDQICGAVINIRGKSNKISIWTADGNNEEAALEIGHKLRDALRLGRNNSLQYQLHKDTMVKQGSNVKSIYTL
Description: Kinetic dissociation of eIF4E–eIF4G complexes by competitor. The class given is biochemical. The conditions noted are these: 1 μM complex on Strep-Tactin beads; fivefold molar excess of C+NC peptide (5 μM); CUP n=3, 4E-T n=2 averages. The protocol: To obtain the preassembled eIF4E–eIF4G complexes used in Figs 4 and 5d–g, full-length eIF4E (WT or the II-AA mutant) containing an N-terminal SNH-tag was coexpressed with an N-terminal GST-tagged eIF4G (residues 578–650). The cells were lysed by sonication in lysis buffer containing 50 mM HEPES (pH 7.2), 300 mM NaCl and 2 mM DTT. The complexes were purified from the cleared lysates using Protino Glutathione Agarose 4B beads (Machery-Nagel). The complex was further purified using a heparin column (HiTrap Heparin HP 5 ml, GE Healthcare) and a final size exclusion chromatography (Superdex 200 16/60, GE Healtcare) in 20 mM HEPES (pH 7.2), 200 mM NaCl and 2 mM DTT.
In the ‘kinetic assays’ shown in Fig. 5d–g, the purified complexes containing SHN-eIF4E and GST-eIF4G (578–650; 1 μM) were incubated with Strep-Tactin beads for 20 min. […] The eIF4E-associated proteins were pulled down, eluted and analyzed as described above. […]
The amounts of GST-eIF4G bound to eIF4E in each experimental condition were determined using the Image J software after Coomassie blue staining. […]
Each experiment was repeated at least twice. (e,f) Quantification of the experiments shown in Fig. 5d–g. […]
micrographs of fixed S2 cells expressing HA-4E-T and GFP-Tral. The localization of HA-4E-T was determined by indirect immunofluorescence using an anti-HA antibody. […]

Turning to “4E-T C: 4E-T residues 9–21, canonical motif”, the “binding to eIF4E II-AA mutant (in words)” value in test [1] was “reduced binding”. Besides, in the test on eIF4E (full length, WT), the “binding to WT eIF4E (in words)” value is recorded as “reduced binding”. Also, the “interaction with endogenous eIF4E (in words)” value in the test with endogenous eIF4E was “drastic reduction”.
“CUP C+NC: CUP residues 325–376, eIF4E-binding region short, C-terminal GB1 (KSYTRSRLMDIRNGMFNALMHRSKESFVMPRIATCDDIELEGRLRRMNIWRT-GB1; UniProt Q9VMA3 325-376, looked up, fragment)”: the “time to 50% eIF4G dissociation” value in test [2] came to 2.5 ± 0.5 min.
With “Thor C: Thor residues 50–63, canonical motif”, the “binding to eIF4E II-AA mutant (in words)” value in test [1] is given as “strongly impaired in their binding”. Moreover, the “interaction with endogenous eIF4E (in words)” value in the test with endogenous eIF4E is “disrupted the interaction with eIF4E”.
